Our source for the mass density values is the NIST ThermoML archive (doi:10.1021/je500455u).

Usually mass density stands for mass per unit of volume.

The conditions of the data set: 101.33 kPa, Liquid, Vibrating tube method.

SMILES strings stand for the structures. Numbers after ± are expanded uncertainties.

On to `FC(F)(F)C1(F)C(F)(F)C(F)(F)C(F)(F)C(F)(F)C1(F)F` [perfluoro(methylcyclohexane)], for which the mass density runs as follows: (278.15 K) 1841 ± 1 kg/m3; (283.15 K) 1827.6 ± 1 kg/m3; (288.15 K) 1814 ± 1 kg/m3; (293.15 K) 1800.4 ± 1 kg/m3; (298.15 K) 1786.6 ± 1 kg/m3; (303.15 K) 1772.7 ± 1 kg/m3. Further, the mass density turned out to be 1758.7 ± 0.9 kg/m3 (308.15 K); 1744.5 ± 0.9 kg/m3 (313.15 K); 1730.3 ± 0.9 kg/m3 (318.15 K); 1715.8 ± 0.9 kg/m3 (323.15 K); 1701.2 ± 0.9 kg/m3 (328.15 K); 1686.4 ± 0.9 kg/m3 (333.15 K). Besides, the mass density is, setting by setting: (338.15 K) 1671.5 ± 0.9 kg/m3; (343.15 K) 1656.3 ± 0.8 kg/m3.

With `OC(C(F)(F)F)C(F)(F)F` [1,1,1,3,3,3-hexafluoro-2-propanol], the mass density (298.15 K) was 1604.84 ± 0.78 kg/m3.

Turning to `FC(F)(F)C(F)(F)C(F)(F)C(F)(F)C(F)(F)C(F)(F)F` [perfluorohexane], the mass density reads like this: (278.15 K) 1742.5 ± 0.9 kg/m3; (283.15 K) 1728.3 ± 0.9 kg/m3; (288.15 K) 1713.8 ± 0.9 kg/m3; (293.15 K) 1699.2 ± 0.9 kg/m3; (298.15 K) 1684.4 ± 0.9 kg/m3; (303.15 K) 1669.4 ± 0.9 kg/m3. Further, the mass density (308.15 K) came to 1654.1 ± 0.8 kg/m3; the mass density (313.15 K) stood at 1638.6 ± 0.8 kg/m3; the mass density (318.15 K) was 1622.9 ± 0.8 kg/m3; the mass density (323.15 K) amounted to 1606.4 ± 0.8 kg/m3; the mass density (328.15 K) was 1590.5 ± 0.8 kg/m3.

As for `CO` [methanol], for the setting “298.15 K”, the mass density turned out to be 786.58 ± 0.23 kg/m3.
